Some test systems named below: OVCAR-8; UACC-62; SK-MEL-28; RXF 393; IGROV-1; LOX IMVI; A498; MDA-N; Hs-578T; SK-OV-3; HL-60; HCT-15; HCT-116; EKVX; ACHN; OVCAR-4; SF-539; K562; SK-MEL-2; SNB-75.
Common to all, as to test: NCI-60 cell line screen, 48 h

These results are taken from ChEMBL document CHEMBL1201862, “PubChem BioAssay data set” (2004).

SMILES strings stand for the structures.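 Step 1: Grow cells in 96-well plates. Step 2: Expose to compound for 48 hours at 5 concentrations. Step 3: Interpolate endpoints linearly; if unreached, use highest concentration. GI50 is the concentration that inhibits growth by half.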 Calls of active or inactive are those of the source. No stated cut-off is given here; in the data, active = GI50 up to about 1.1 µM and inactive = higher.

As to `CN(C)CCCN1c2ccccc2Sc2ccc3ccccc3c21`, the GI50 in the test on OVCAR-8 is 12.7 µM (inactive); with UACC-62 it was 4.61 µM (inactive); in the test on SK-MEL-28, 2.08 µM (inactive); in the test with RXF 393 it was 1.65 µM (inactive); in the test on IGROV-1, 8.67 µM (inactive); in the test with LOX IMVI it was 4.91 µM (inactive). In addition, the GI50 in the test on A498 was 5.71 µM (inactive); with MDA-N, 4.12 µM (inactive); in the test with Hs-578T, 8.73 µM (inactive); in the test with SK-OV-3 it was 14.2 µM (inactive); in the test with HL-60, < 0.01 µM (active); in the test on HCT-15, 6.43 µM. In addition, the GI50 in the test on HCT-116 is 10.2 µM (inactive); with EKVX it was 10.7 µM (inactive); with ACHN, 8.3 µM (inactive); with OVCAR-4, 5.35 µM (inactive); in the test with SF-539, 16.1 µM (inactive); with K562, 1.86 µM (inactive). Also, the GI50 in the test on SK-MEL-2 was 5.79 µM (inactive).
Take `Cc1cc(S(=O)(=O)[N-]/C(=N/S(=O)(=O)c2cc(Cl)sc2Cl)[n+]2ccc(N(C)C)cc2)c(S)cc1Cl`: the GI50 is 40.8 µM (inactive) with OVCAR-8; 84.9 µM (inactive) in the test with SK-MEL-28; 46.3 µM (inactive) in the test with RXF 393; > 100 µM (inactive) with IGROV-1; > 100 µM (inactive) with LOX IMVI; 26.7 µM (inactive) in the test with A498. The GI50 in the test on MDA-N is 34 µM (inactive); in the test with Hs-578T, 40.4 µM (inactive); with SK-OV-3, 42.9 µM (inactive); with HL-60, > 100 µM (inactive); in the test with HCT-15, 42.7 µM; in the test on HCT-116, 24.1 µM (inactive). Also, the GI50 with EKVX was > 100 µM (inactive); in the test on ACHN, 67 µM (inactive); in the test with OVCAR-4, 37.2 µM (inactive); in the test on SF-539 it was 46.6 µM (inactive); in the test with K562, 43.9 µM (inactive); in the test with SK-MEL-2, 50.4 µM (inactive).
`C=C(C(=O)O)[C@@H]1C[C@@H]2O[C@H]1CC(C)=CCC/C(C)=C/CC[C@@]2(C)O`: the GI50 with OVCAR-8, with UACC-62, in the test on SK-MEL-28, with RXF 393, with IGROV-1 and in the test on LOX IMVI was > 100 µM (inactive) in each case. The GI50 in the test on A498 is > 100 µM (inactive); in the test on MDA-N, > 100 µM (inactive); in the test with Hs-578T it was > 100 µM (inactive); with SNB-75, > 100 µM (inactive); in the test with HL-60 it was > 100 µM (inactive); with HCT-15, more than 100 µM. The GI50 in the test on HCT-116, with EKVX, in the test with ACHN, in the test on OVCAR-4, in the test on SF-539 and with K562 was > 100 µM (inactive) each time. The GI50 with SK-MEL-2 is > 100 µM (inactive).
Turning to `CC(C)(C)c1cc(C(C)(C)C)c(SSc2c(C(C)(C)C)cc(C(C)(C)C)c(O)c2O)c(O)c1O`, the GI50 in the test on OVCAR-8 is 12.3 µM (inactive); with UACC-62 it was 5.7 µM (inactive); in the test with SK-MEL-28, 16.3 µM (inactive); with RXF 393, 16.4 µM (inactive); with IGROV-1 it was 12 µM (inactive); with LOX IMVI it was 9.64 µM (inactive). The GI50 in the test on A498 was 14 µM (inactive); in the test with MDA-N, 10.4 µM (inactive); with Hs-578T it was 10.5 µM (inactive); in the test on SNB-75, 14.8 µM (inactive); in the test on HL-60, 3.46 µM (inactive); in the test with HCT-15, 6.19 µM. The GI50 in the test on HCT-116 is 10.9 µM (inactive); in the test with EKVX it was 16.4 µM (inactive); in the test on ACHN it was 11.4 µM (inactive); with OVCAR-4, 3.55 µM (inactive); in the test with K562, 6.43 µM (inactive); in the test with SK-MEL-2, 14.4 µM (inactive).
Take `CC1CC(C)CC(C)C(O)/C(C#N)=C/C=C/CC(C2CCCC2C(=O)O)OC(=O)CC(O)C(C)C1` (stereo not drawn): the GI50 with OVCAR-8 was 0.0192 µM (active); in the test on UACC-62, 0.0101 µM (active); in the test with SK-MEL-28, < 0.0111 µM (active); in the test on RXF 393, < 0.01 µM (active); in the test with IGROV-1, < 0.0118 µM (active); with LOX IMVI it was < 0.0109 µM (active). For the same molecule, the GI50 in the test with A498 was 0.0105 µM (active); in the test on MDA-N, < 0.0112 µM (active); with Hs-578T it was < 0.01 µM (active); in the test on SK-OV-3, 0.0161 µM (active); in the test on SNB-75, 0.0175 µM (active); with HL-60 it was 0.0137 µM (active). For the same molecule, the GI50 was 0.0131 µM in the test with HCT-15; 0.0223 µM (active) in the test with HCT-116; 0.064 µM (active) in the test with EKVX; < 0.0194 µM (active) in the test with ACHN; 0.0424 µM (active) in the test on OVCAR-4; < 0.01 µM (active) in the test with SF-539. Besides, the GI50 in the test with SK-MEL-2 is < 0.01 µM (active).
In the case of `O=C(O)c1c(CC(Cc2ccc3c(c2)CCCC3)C(=O)O)ccc2c1CCCC2` (stereo not drawn), the GI50 in the test on OVCAR-8, in the test on UACC-62, with SK-MEL-28, with RXF 393, in the test with IGROV-1 and in the test with LOX IMVI was > 100 µM (inactive) throughout. Besides, the GI50 in the test with A498, in the test with MDA-N, in the test on Hs-578T, with SK-OV-3, in the test with SNB-75 and in the test with HL-60 was > 100 µM (inactive) in each case. Moreover, the GI50 was more than 100 µM in the test on HCT-15; > 100 µM (inactive) in the test with HCT-116; > 100 µM (inactive) with EKVX; > 100 µM (inactive) in the test on ACHN; > 100 µM (inactive) in the test with SF-539; > 100 µM (inactive) with K562. For the same molecule, the GI50 with SK-MEL-2 was > 100 µM (inactive).
In the case of `O=[N+]([O-])/C(C(Cl)=C(Cl)Cl)=C(/Nc1ccccc1)SCc1ccccc1`, the GI50 in the test with OVCAR-8 was 17.7 µM (inactive); in the test on UACC-62 it was 20 µM (inactive); in the test with SK-MEL-28, 20.4 µM (inactive); in the test with RXF 393, 19.4 µM (inactive); with IGROV-1, 22.3 µM (inactive); in the test with LOX IMVI it was 20.5 µM (inactive). The GI50 was 25.9 µM (inactive) in the test on A498; 16.7 µM (inactive) in the test with MDA-N; 44.1 µM (inactive) with Hs-578T; 52 µM (inactive) in the test on SK-OV-3; 19.1 µM (inactive) in the test on HL-60; 14.4 µM in the test with HCT-15. In addition, the GI50 was 16.6 µM (inactive) with HCT-116; 21 µM (inactive) in the test on EKVX; 28.3 µM (inactive) with ACHN; 24.7 µM (inactive) in the test with OVCAR-4; 23.4 µM (inactive) in the test with SF-539; 24 µM (inactive) in the test with K562. The GI50 in the test on SK-MEL-2 is 19.4 µM (inactive).
Take `C[C@]12CC[C@@H]3c4cc(I)c(O)cc4CC[C@H]3[C@@H]1CC[C@@H]2O`: the GI50 with OVCAR-8 is 6.52 µM (inactive); in the test with SK-MEL-28, 7.96 µM (inactive); with RXF 393, 6.07 µM (inactive); in the test on IGROV-1, 5.93 µM (inactive); with LOX IMVI, 4.17 µM (inactive); in the test with A498 it was 8.43 µM (inactive). Further, the GI50 in the test with MDA-N was 1.74 µM (inactive); in the test with Hs-578T, 2.32 µM (inactive); in the test with SK-OV-3, 4.25 µM (inactive); with SNB-75 it was 3.17 µM (inactive); with HL-60, 5.65 µM (inactive); in the test on HCT-15, 2.48 µM. Besides, the GI50 is 2.65 µM (inactive) in the test on EKVX; 8.75 µM (inactive) in the test with ACHN; 16.5 µM (inactive) with OVCAR-4; 3.52 µM (inactive) in the test on K562; 3.02 µM (inactive) in the test on SK-MEL-2.
